According to patent US9055743B2, “Alpha, beta-unsaturated imines” (BAYER INTELLECTUAL PROPERTY GMBH, priority 2010, dated 2015):

What was measured:
Format in all cases: in vivo
[1] = tested on: larvae of the mustard beetle (Phaedon cochleariae); assay: Phaedon test (PHAECO spray treatment); conditions: 500 g/ha, spray, after 7 days
Method in brief: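 Mustard beetle larvae were placed on dried Brassica pekinensis leaf discs previously spray-treated with test compound; formulation used acetone and dimethylformamide solvents plus alkylaryl polyglycol ether emulsifier, diluted with emulsifier-containing water.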

[2] = tested on: Anopheles gambiae (homocygus kdr); assay: Anopheles test (ANPHGB surface treatment); conditions: 100 mg/m^2, two hours after contact, exposition 30 minutes
Method in brief: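 Adult mosquitoes held 30 min on a glazed tile treated with a dried 2 mg/ml acetone solution of compound. Mortality scored at 24 h (100% = all killed), knock-down percentage at 2 h post-contact.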

[3] = tested on: caterpillars of the army worm (Spodoptera frugiperda); assay: Spodoptera frugiperda test (SPODFR spray treatment); conditions: 500 g/ha, spray, after 7 days
Method in brief: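 Activity in % read 7 days after armyworm caterpillars were placed on dried, sprayed Zea mays leaf discs; 0% means none killed. Spray prepared from an acetone/DMF concentrate with emulsifier, diluted with emulsifier-containing water.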

[4] = tested on: cat fleas (Ctenocephalides felis, fully sensitive laboratory strain); assay: Contact test against fleas in-vitro (CTECFE contact); conditions: 500 g/ha, after 48 h
Method in brief: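 Test tubes coated from acetone solutions by rotation, top concentration 500 g/ha (500 μg/dm^2) on tube surface, serial 1:5 dilutions. 10-20 CO2-anesthetized adult fleas held at room temperature for 24 and 48 h. Activity scored versus acetone control: knock-down or death of all fleas = 100%.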

[5] = tested on: Boophilus microplus strain Parkhurst, SP-resistant; assay: Boophilus microplus test (DIP); conditions: 100 ppm, after 7 days
Experimental: Boophilus microplus Test (DIP) Test Animals: Adult Fat Females of the Boophilus microplus Strain Parkhurst—SP-Resistant) Solvent: Dimethyl Sulphoxide
10 mg of active compound are dissolved in 0.5 ml of dimethyl sulphoxide. To produce a suitable formulation, the active compound solution is diluted with water to the particular desired concentration.
This active compound preparation is pipetted into tubes. 8-10 ticks are transferred into a further tube provided with holes. The tube is dipped into the active compound preparation, with all the ticks being wetted completely. After the liquid has run off, the ticks are transferred to filter discs in plastic dishes and kept in a climatized room. After 7 days, the activity is checked for deposition of fertile eggs. Eggs whose fertility is not visible from the outside are kept in glass tubes in a climatized cupboard until the larvae have hatched. An activity of 100% means that no tick has laid fertile eggs.

[6] = tested on: green peach aphid (Myzus persicae); assay: Myzus test (MYZUPE spray treatment); conditions: 500 g/ha, spray, after 6 days
Method in brief: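 Activity read as % aphid kill 6 days after treatment (0% = none killed). Compound formulated in acetone and dimethylformamide plus alkylaryl polyglycol ether, diluted in water and sprayed onto infested Brassica pekinensis leaf discs.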

Ctenocephalides felis = Ctenocephalides felis oral test (CTECFE); conditions: 100 ppm in citrated cattle blood, after two days
Experimental: Ctenocephalides Felis Oral Test (CTECFE)
Solvent: 1 Part by Weight of Dimethyl Sulphoxide
To produce a suitable preparation of active compound, 10 mg of active compound are mixed with 0.5 ml of dimethyl sulphoxide. Part of the concentrate is diluted with citrated cattle blood, and the desired concentration is prepared.
About 20 unfed adult fleas (Ctenocephalides felis) are placed into a chamber which is closed at the top and bottom with gauze. A metal cylinder whose bottom end is closed with parafilm is placed onto the chamber. The cylinder contains the blood/active compound preparation, which can be taken up by the fleas through the parafilm membrane. After two days, the kill in % is determined 100% means that all fleas have been killed; 0% means that none of the fleas have been killed.

Lucilia cuprina larvae = assay: Lucilia cuprina test (LUCICU); conditions: 100 ppm, after 2 days
Experimental: Lucilia cuprina Test (LUCICU)
(§1) Solvent: Dimethyl Sulphoxide
To produce a suitable preparation of active compound, 10 mg of active compound are mixed with 0.5 ml of dimethyl sulphoxide and the concentrate is diluted with water to the desired concentration. Vessels containing horsemeat treated with the active compound preparation of the desired concentration are populated with about 20 Lucilia cuprina larvae.
After 2 days, the kill in % is determined. 100% means that all larvae have been killed; 0% means that none of the larvae have been killed.

Boophilus microplus = Boophilus microplus test (BOOPMI injection); conditions: 20 μg/animal, injection into the abdomen, after 7 days
Experimental: Boophilus microplus Test (BOOPMI Injection)
as §1
To produce a suitable preparation of active compound, 10 mg of active compound are mixed with 0.5 ml of solvent and the concentrate is diluted with solvent to the desired concentration. The solution of active compound is injected into the abdomen (Boophilus microplus), and the animals are transferred into dishes and kept in a climatized room. The activity is assessed by […] of fertile eggs.
After 7 days, the effect in % is determined 100% means that none of the ticks has laid any fertile eggs.

[7] = tested on: greenhouse red spider mite (Tetranychus urticae); assay: Tetranychus test; OP-resistant (TETRUR spray treatment); conditions: 500 g/ha, spray, after 6 days
Method in brief: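 Activity, as % of mites killed (0–100%), was assessed 6 days after spraying. The spray was compound formulated with acetone, DMF and emulsifier, then diluted in water. It was applied to Phaseolus vulgaris leaf discs carrying every life stage of an OP-resistant spider mite strain.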

Aedes aegypti = assay: Aedes test (AEDSAE surface treatment); conditions: 100 mg/m^2, two hours after contact, exposition 30 minutes
Experimental: Aedes Test (AEDSAE Surface Treatment)
To produce a suitable preparation of active compound, the active compound is dissolved in acetone (2 mg/ml). The active compound preparation is pipetted onto a glazed tile and, after drying, adult mosquitoes of the species Aedes aegypti are placed onto the treated tile. The exposition time is 30 minutes.
Two hours after contact to the treated surface, the knock-down proportion of the test animals in % is determined.
24 hours after contact to the treated surface, the mortality in % is determined Here, 100% means that all mosquitoes have been killed; 0% means that none of the mosquitoes has been killed.

| SMILES | activity (beetle larvae killed) [1] | knock-down activity [2] | activity (caterpillars killed) [3] | activity against cat fleas [4] | activity (100% = no tick has laid fertile eggs) [5] | activity (aphids killed) [6] | activity (kill in %) (Ctenocephalides felis) | activity (kill in %) (Lucilia cuprina larvae) | activity (100% = none of the ticks has laid any fertile eggs) (Boophilus microplus) | activity (spider mites killed) [7] | knock-down activity (Aedes aegypti) |
| --- | --- | --- | --- | --- | --- | --- | --- | --- | --- | --- | --- |
| Cc1ccc(N=C2C(=CSc3ccccc3)CSc3ccccc32)cc1 [Example 1-4] | 100% | 100% | 100% | 100% | 100% | 100% | 100% | 100% | 100% | 100% |  |
| Cc1ccc(N=C2C(=CSc3ccc(Cl)cc3)CCc3ccccc32)cc1 [Example 1-59] | 100% |  | 100% | 100% | 100% | 100% | 100% | 90% | 100% | 100% |  |
| Cc1ccc(N=C2C(=CSc3ccccc3F)CCc3ccccc32)cc1 [Example 1-80] | 100% | 100% | 100% | 100% |  | 100% | 90% | 100% | 100% | 100% | 80% |
| Cc1ccc(N=C2C(=CSc3ccc(F)c(F)c3)CCc3ccccc32)cc1 [Example 1-74] | 100% | 100% | 100% | 100% |  | 100% | 80% | 100% | 100% | 100% | 95% |
| Cc1ccc(N=C2C(=CSc3ccc(F)cc3F)CCc3ccccc32)cc1 [Example 1-79] | 100% | 100% | 100% | 100% |  | 100% | 100% | 100% | 100% | 100% | 100% |
| Cc1ccc(N=C2C(=CSc3cccc(Cl)c3)CCc3ccccc32)cc1 [Example 1-62] | 100% | 100% | 100% | 100% | 100% | 100% | 100% | 80% | 100% | 100% |  |
| Cc1ccc(N=C2C(=CSc3ccc(F)cc3)C(C)c3cc(C)ccc32)c(C)c1 (mixture of isomers) [Example 1-85] | 100% | 100% | 100% | 100% |  | 100% | 90% | 100% | 100% | 100% |  |
| Cc1ccc(N=C2C(=CSc3ccc(C(F)(F)F)cc3)CCc3ccccc32)cc1 [Example 1-82] | 100% | 100% | 100% | 100% |  | 100% | 100% | 100% | 100% | 100% |  |
